Assay [1] deals with T1, 5-hydroxytryptamine receptor 2A (Homo sapiens, UniProt P28223). In words: Agonist activity at human 5-HT2A receptor expressed in CHO-K1 cells co-expressing Galpha16 assessed as increase in calcium mobilization measured for 30 secs by aequorin-derived luminescence assay. It counts as functional, cell-based.
Assay [2] deals with T2, Adrenergic receptor alpha-1 (Rattus norvegicus, UniProt P15823+P23944+P43140).
T2 sequence (P15823 whole entry): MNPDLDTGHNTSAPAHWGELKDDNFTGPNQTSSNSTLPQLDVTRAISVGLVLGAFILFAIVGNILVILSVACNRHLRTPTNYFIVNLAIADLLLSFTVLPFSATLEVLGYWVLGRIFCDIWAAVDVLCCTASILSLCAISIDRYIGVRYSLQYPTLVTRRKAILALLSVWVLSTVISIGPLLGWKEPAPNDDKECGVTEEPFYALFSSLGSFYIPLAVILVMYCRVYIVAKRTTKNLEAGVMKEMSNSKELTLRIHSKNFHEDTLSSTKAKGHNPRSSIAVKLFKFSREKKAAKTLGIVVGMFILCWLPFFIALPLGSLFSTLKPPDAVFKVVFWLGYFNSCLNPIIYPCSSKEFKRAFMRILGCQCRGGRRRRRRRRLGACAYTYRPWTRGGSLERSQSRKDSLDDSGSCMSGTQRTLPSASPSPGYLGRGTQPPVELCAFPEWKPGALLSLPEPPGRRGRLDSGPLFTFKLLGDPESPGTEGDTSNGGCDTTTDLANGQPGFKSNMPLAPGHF
T2 sequence (P23944 whole entry): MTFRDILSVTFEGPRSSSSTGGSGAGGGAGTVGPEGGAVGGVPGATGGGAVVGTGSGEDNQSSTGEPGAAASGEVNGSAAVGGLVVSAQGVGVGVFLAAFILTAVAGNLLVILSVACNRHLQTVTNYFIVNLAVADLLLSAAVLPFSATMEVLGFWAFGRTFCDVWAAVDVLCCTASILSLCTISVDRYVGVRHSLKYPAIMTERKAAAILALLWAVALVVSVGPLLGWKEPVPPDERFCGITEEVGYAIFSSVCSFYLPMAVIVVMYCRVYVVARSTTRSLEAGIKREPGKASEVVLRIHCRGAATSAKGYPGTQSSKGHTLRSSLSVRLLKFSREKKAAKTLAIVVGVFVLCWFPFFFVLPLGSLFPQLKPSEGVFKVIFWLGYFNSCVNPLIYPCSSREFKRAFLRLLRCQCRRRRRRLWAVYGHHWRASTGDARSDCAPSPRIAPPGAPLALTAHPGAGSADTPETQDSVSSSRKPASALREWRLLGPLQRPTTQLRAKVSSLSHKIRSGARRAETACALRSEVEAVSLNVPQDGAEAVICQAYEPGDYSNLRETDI
T2 sequence (P43140 whole entry): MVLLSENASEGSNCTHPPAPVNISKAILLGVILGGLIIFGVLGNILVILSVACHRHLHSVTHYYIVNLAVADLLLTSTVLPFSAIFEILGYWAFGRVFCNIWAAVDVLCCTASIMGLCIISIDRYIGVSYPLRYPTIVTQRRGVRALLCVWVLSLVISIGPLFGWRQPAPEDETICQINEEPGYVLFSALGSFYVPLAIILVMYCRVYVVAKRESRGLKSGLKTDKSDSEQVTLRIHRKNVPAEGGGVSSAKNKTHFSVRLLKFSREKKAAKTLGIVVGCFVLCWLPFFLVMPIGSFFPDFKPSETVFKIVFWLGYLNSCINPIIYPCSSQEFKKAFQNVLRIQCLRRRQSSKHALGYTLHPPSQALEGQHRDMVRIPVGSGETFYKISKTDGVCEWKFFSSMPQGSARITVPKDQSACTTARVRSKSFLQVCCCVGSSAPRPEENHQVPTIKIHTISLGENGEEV
In words: Displacement of [3H]prazosin from rat cerebral cortex adrenergic receptor alpha1 by liquid scintillation counting method. For orientation: Displacement assays read how much labelled ligand stays bound in the presence of the test substance.

Assay [3] deals with T1, 5-hydroxytryptamine receptor 2A. In words: Binding affinity to 5-HT2A receptor (unknown origin).
Assay [4] has as its target D(2) dopamine receptor (Homo sapiens, UniProt P14416). In words: Binding affinity to D2 receptor (unknown origin).
The target in assay [5] is T3, 5-hydroxytryptamine receptor 1A (Homo sapiens, UniProt P08908).
T3 sequence (P08908 whole entry): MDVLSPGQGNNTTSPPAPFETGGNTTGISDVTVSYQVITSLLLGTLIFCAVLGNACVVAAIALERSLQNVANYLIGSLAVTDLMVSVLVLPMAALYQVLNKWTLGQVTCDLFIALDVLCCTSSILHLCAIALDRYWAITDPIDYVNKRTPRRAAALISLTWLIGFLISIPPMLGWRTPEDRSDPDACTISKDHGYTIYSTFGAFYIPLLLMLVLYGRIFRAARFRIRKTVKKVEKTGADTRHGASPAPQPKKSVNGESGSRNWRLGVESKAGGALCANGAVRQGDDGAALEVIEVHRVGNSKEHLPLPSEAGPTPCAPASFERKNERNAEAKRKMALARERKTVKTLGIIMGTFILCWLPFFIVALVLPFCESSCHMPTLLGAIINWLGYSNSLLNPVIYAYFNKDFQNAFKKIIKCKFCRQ
The assay is described as follows: Binding affinity to 5-HT1A receptor (unknown origin).

In assay [6] the target is T4, 5-hydroxytryptamine receptor 1A (Rattus norvegicus, UniProt P19327).
T4 sequence (P19327 whole entry): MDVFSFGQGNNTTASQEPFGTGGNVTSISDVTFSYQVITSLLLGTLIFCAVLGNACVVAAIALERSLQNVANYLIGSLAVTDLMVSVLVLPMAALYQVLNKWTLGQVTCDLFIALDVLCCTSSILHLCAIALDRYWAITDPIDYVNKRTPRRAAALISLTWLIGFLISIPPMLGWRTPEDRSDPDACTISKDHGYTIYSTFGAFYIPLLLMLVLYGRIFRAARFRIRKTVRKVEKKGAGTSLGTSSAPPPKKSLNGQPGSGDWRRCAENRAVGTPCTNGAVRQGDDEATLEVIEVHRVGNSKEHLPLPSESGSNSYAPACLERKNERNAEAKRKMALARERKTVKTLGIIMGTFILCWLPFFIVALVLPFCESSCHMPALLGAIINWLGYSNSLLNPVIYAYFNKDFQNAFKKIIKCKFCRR
The assay is described as follows: Displacement of [3H]8-OH-DPAT from Wistar rat 5-HT1A receptor after 20 mins by liquid scintillation counting method.

Assay [7] addresses T1, 5-hydroxytryptamine receptor 2A. The assay is described as follows: Displacement of [3H]-ketanserin from recombinant human 5-HT2A receptor after 60 mins by liquid scintillation counting method.
Assay [8] addresses 5-hydroxytryptamine receptor 7 (Homo sapiens, UniProt P34969). The assay is described as follows: Displacement of [3H]-LSD from recombinant human 5-HT7 receptor after 60 mins by liquid scintillation counting method.
Assay [9] has as its target T5, Adrenergic receptor alpha-2 (Rattus norvegicus, UniProt P22086+P19328+P22909).
T5 sequence (P22086 whole entry): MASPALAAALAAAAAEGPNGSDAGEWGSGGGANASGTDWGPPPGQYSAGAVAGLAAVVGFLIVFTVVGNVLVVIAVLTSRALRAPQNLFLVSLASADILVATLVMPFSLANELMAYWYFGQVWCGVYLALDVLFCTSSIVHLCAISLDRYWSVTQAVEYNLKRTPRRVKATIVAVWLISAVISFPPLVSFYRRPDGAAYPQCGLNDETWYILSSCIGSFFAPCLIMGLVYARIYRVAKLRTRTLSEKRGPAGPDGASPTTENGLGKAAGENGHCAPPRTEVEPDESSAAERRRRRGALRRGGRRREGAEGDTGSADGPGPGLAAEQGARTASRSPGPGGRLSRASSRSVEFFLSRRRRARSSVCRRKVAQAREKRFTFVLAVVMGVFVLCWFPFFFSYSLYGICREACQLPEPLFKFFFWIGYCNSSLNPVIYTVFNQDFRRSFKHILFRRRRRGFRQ
T5 sequence (P19328 whole entry): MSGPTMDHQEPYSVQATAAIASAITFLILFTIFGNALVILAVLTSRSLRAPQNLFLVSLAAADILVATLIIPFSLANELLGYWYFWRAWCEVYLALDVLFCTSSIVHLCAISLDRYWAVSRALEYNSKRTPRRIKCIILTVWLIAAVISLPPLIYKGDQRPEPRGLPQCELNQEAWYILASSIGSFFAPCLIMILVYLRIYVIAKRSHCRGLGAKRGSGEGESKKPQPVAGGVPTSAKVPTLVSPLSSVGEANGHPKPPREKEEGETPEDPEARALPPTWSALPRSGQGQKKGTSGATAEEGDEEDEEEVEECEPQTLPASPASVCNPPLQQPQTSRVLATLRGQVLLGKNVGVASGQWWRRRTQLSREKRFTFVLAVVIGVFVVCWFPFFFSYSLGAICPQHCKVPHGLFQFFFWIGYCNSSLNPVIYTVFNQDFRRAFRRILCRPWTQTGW
T5 sequence (P22909 whole entry): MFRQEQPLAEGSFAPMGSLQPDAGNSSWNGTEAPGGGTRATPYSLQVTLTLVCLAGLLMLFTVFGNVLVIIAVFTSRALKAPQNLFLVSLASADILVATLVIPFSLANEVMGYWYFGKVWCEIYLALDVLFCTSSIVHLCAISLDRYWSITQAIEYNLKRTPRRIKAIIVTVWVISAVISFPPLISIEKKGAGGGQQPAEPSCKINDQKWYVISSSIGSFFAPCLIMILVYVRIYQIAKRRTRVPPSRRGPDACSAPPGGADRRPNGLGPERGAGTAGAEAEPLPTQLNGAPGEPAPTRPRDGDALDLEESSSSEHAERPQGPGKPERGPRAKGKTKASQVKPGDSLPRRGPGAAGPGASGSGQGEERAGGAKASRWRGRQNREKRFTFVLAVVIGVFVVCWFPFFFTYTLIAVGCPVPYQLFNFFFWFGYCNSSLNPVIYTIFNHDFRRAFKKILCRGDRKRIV
In words: Displacement of [3H]clonidine from rat cerebral cortex adrenergic receptor alpha2 by liquid scintillation counting method.

4 compounds from ChEMBL document CHEMBL4190389, “Synthesis and activity of di- or trisubstituted N-(phenoxyalkyl)- or N-{2-[2-(phenoxy)ethoxy]ethyl}piperazine derivatives on the central nervous system” (Bioorg Med Chem Lett, 2018) can be followed below.

As usually defined, the EC50 is the midpoint of the concentration-response curve. A word on the Ki: it is the dissociation constant of the complex between target and ligand, obtained from inhibition or displacement.

Structures are written as SMILES.

T1 sequence (P28223 whole entry): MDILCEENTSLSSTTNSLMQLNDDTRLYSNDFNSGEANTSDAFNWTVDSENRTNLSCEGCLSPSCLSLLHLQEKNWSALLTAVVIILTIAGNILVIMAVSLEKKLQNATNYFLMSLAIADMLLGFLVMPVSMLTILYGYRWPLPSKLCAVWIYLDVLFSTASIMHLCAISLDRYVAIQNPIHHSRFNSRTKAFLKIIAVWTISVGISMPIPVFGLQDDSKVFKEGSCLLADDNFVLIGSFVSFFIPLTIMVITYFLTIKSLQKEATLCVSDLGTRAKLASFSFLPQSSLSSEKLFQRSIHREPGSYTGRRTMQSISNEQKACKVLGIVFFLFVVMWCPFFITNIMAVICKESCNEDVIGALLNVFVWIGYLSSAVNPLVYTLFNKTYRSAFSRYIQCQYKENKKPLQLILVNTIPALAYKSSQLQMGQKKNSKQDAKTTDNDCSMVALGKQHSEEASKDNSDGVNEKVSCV
D(2) dopamine receptor, sequence (P14416 whole entry): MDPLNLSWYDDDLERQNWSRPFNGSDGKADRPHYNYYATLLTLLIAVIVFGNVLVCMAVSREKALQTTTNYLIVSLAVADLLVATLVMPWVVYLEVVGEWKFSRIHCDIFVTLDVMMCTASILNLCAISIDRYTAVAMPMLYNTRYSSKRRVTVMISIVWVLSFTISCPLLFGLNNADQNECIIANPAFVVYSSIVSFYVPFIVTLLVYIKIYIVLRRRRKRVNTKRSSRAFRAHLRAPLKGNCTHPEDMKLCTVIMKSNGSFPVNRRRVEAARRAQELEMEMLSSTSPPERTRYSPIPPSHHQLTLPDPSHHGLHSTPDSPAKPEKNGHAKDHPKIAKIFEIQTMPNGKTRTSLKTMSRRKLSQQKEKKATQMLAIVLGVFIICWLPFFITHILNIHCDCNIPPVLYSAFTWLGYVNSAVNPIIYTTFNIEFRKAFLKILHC
5-hydroxytryptamine receptor 7, sequence (P34969 whole entry): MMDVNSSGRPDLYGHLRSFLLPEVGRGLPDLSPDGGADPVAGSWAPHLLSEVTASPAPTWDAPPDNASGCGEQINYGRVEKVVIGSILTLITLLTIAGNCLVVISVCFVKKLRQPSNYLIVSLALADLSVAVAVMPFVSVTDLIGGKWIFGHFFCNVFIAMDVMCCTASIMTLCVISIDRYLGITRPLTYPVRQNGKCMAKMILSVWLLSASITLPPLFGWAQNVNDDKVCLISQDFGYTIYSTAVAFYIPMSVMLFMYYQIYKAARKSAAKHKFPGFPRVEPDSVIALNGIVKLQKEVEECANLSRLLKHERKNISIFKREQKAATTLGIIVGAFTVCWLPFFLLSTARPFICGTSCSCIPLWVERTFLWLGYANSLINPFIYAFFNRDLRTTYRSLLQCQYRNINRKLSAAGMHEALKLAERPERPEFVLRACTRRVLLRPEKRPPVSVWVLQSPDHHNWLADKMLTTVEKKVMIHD

Consider `CC(N)Cc1c[nH]c2ccc(O)cc12` (stereo not given), for which the EC50 in assay [1] came to 2 nM.

With `OCCOCCN1CCN(C(c2ccccc2)c2ccc(Cl)cc2)CC1` (stereo not given) [HYDROXYZINE], the Ki was found to be 300 nM in [2], 50 nM in assay [3] and 378 nM in assay [4].

`COc1ccccc1N1CCN(CCCNc2cc(=O)n(C)c(=O)n2C)CC1`: the Ki in [2] was 127.9 nM; in [5] it was 213 nM.

Regarding `COc1ccccc1N1CCN(CCCOc2c(C)cccc2C)CC1.Cl`, the Ki worked out at 0.7 nM in assay [6], 192 nM in [7], 26 nM in [8] and 341 nM in assay [9].
